Data published in patent publication US5216162A, “Substituted pyrrolo[3,2-c]quinolines” (American Home Products Corporation, priority 1992, dated 1993).

System: IL-1-induced release of neutral protease from rabbit articular chondrocytes
Experiment: Inhibition of IL-1-induced release of neutral protease from rabbit articular chondrocytes (azocoll neutral protease assay)
Assay type: cell-based, rabbit (male New Zealand white)
Details: Oryctolagus cuniculus, Chondrocyte, purified human IL-1 stimulation
Description: The ability of the compounds of the inventions to inhibit interleukin 1 is measured by the ability of the test compounds to inhibit the IL-1-induced release of neutral protease from rabbit articular chondrocytes.
This assay is carried out as follows:
Isolation of rabbit chondrocytes
Male New Zealand white rabbits are anesthetized with 50 mg/kg of ketamine (i.m.) and killed by an intracardiac injection of 3 mls of Nembutal. The knee joints of both legs are resected and the articular surfaces are exposed. Cartilage slices are obtained using a scalpel and are placed in a tissue culture dish (100 mm diameter) containing 10 mls of Hank's balanced salt solution (HBSS). The chondrocytes within the cartilage slices are then liberated by a series of enzyme digestions. The slices are incubated for 10 minutes at 37° C. in 0.05% hyaluronidase (Sigma H-3884), rinsed with HBSS and incubated with 0.2% trypsin (Sigma T-2395) for 10 minutes at 37° C. The slices are rinsed again and incubated for 10 minutes at 37° C. with 1.2% collagenase (Sigma C-5138). The slices are then rinsed again with HBSS and resuspended in 10 ml of Ham's F-12 medium containing 10% fetal bovine calf serum (FCS) and 0.2% collagenase and incubated overnight at 37° C. in a 5% CO2 incubator. The next day, the medium containing the digested cartilage fragments and liberated chondrocytes is transferred to a 15 ml centrifuge tube and the cells are collected by centrifugation and washed twice and resuspended in Ham's F-12 medium. The cells are then plated into 24-well tissue culture plates (2×10^ 5 cells/well) and incubated at […] until confluent (usually 4-6 days).
Stimulation of chondrocytes and drug treatment
The confluent chondrocytes are rinsed twice with serum-free Ham's F-12 medium and 1 ml is added to each well. Fifty μl of purified human IL-1 (100 Units/ml; Genzyme Corporation, Boston, MA) is then added to stimulate these cells to secrete neutral protease. To measure drug effects, the cells are treated with test compound 10 minutes prior to addition of IL-1. The standard screening dose is 10 μM. Twenty-four hours after IL-1 stimulation, supernatant fluids are collected and assayed for neutral protease activity.
The neutral protease activity of chondrocyte supernatant fluids is determined by their ability to degrade an insoluble protease substrate, azocoll (Sigma). Supernatants are treated for 10 minutes at room temperature with 350 μM p-aminophenylmurcuric acetate to activate the latent enzyme. Three hundred of μl of supernatant is then mixed with 500 μl of a 20 mg/ml suspension of azocoll and incubated at 37° C. for 18-24 hours with gentle rocking. The mixtures are centrifuged and the amount of substrate hydrolyzed is determined by measuring the absorbance of the supernatant at 520 nm.
Drug effects are calculated as the % change in enzyme activity (absorbance)by supernatants from drug-treated chondrocytes relative to enzyme activity of supernatants from vehicle-treated chondrocytes as follows: [formula]
Where tested in this assay, the compounds of the invention gave the following results: […]

[1] = test compound 10 min before IL-1, 24 h, read-out: % Inhibition (I.S.D.)

N#Cc1ccc(NCCc2[nH]c3c(cnc4cc(Cl)ccc43)c2C=O)cc1 [Example 1, 4-[[2-(7-Chloro-3-formyl-1H-pyrrolo[3,2-c]-quinolin-2-yl)ethyl]amino]benzonitrile]
inhibition at 10 µM [1]: 21%

CCOC(=O)c1ccc(NCCc2[nH]c3c(cnc4cc(Cl)ccc43)c2C=O)cc1 [Example 2, 4-[[2-(7-Chloro-3-formyl-1H-pyrrolo[3,2-c]quinolin-2-yl)ethyl]amino]benzoicacid ethyl ester]
inhibition at 10 µM [1]: 50%

CS(=O)(=O)c1ccc(NCCc2[nH]c3c(cnc4cc(Cl)ccc43)c2C=O)cc1 [Example 3, 7-Chloro-2-[2-[[4-(methylsulfonyl)phenyl]amino]ethyl]-1H-pyrrolo[3,2-c]quinoline-3-carboxaldehyde]
inhibition at 10 µM [1]: 28%

N#Cc1ccc(NCCc2[nH]c3c(cnc4cc(Cl)ccc43)c2C=NNc2ccccc2)cc1 [Example 4, 4-[[2-[7-Chloro-3-[(phenylhydrazono)methyl]-1H-pyrrolo[3,2-c]quinolin-2-yl]ethyl]amino]benzonitrile]
inhibition at 10 µM [1]: 52%

CCOC(=O)c1ccc(NCCc2[nH]c3c(cnc4cc(Cl)ccc43)c2C=NNc2ccccc2)cc1 [Example 5, 4-[[2-[7-Chloro-3-[(phenylhydrazono)methyl]-1H-pyrrolo[3,2-c]quinolin-2-yl]ethyl]amino]benzoic acid ethyl ester]
inhibition at 10 µM [1]: 54%

CS(=O)(=O)c1ccc(NCCc2[nH]c3c(cnc4cc(Cl)ccc43)c2C=NNc2ccccc2)cc1 [Example 6, 7-Chloro-2-[2-[[4-(methylsulfonyl)phenyl]amino]ethyl]-1H-pyrrolo[3,2-c]quinoline-3-carboxaldehyde phenylhydrazone]
inhibition at 0.1 µM (dose 0.1 μM, test compound 10 min before IL-1, 24 h, read-out: % Inhibition (I.S.D.)): 14% | inhibition at 1 µM (dose 1 μM, test compound 10 min before IL-1, 24 h, read-out: % Inhibition (I.S.D.)): 23% | inhibition at 10 µM [1]: 80% | IC50 (24 h, doses 10, 1 and 0.1 μM): 2900 nM
